# Experiments:
# Experiment in all cases: area under growth-rate inhibition curve (AUC GRI) (dimensionless (GR-based AUC)); higher = less growth inhibition
# Settings in all cases: exposure time: 72 h; concentrations: 0.1, 1, 10 uM
# MDA-MB-468 = test system: MDA-MB-468
# Method in brief: (§1)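 Nuclear counts from Hoechst 33342- or DAPI-stained images were used to estimate the area under the growth-rate inhibition curve, with growth corrected by reference to untreated and DMSO-treated plates and starting plates. The six breast cancer cell line models, comprising two triple-negative lines and parental and drug-combination-resistant HER2+ lines, were treated with compound at 0.1, 1 or 10 µM for 72 h. Data came from 2 biological replicates, using Day 0 and Day 3 plates.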
# SKBR3-LTR = test system: SKBR3-LTR
# Method in brief: as §1
# SKBR3-P = test system: SKBR3-P
# Method in brief: as §1
# BT474-P = test system: BT474-P
# Method in brief: as §1
# BT474-LTR = test system: BT474-LTR
# Method in brief: as §1
# MDA-MB-231 = test system: MDA-MB-231
# Method in brief: as §1
SMILES,area under growth-rate inhibition curve (MDA-MB-468),area under growth-rate inhibition curve (SKBR3-LTR),area under growth-rate inhibition curve (SKBR3-P),area under growth-rate inhibition curve (BT474-P),area under growth-rate inhibition curve (BT474-LTR),area under growth-rate inhibition curve (MDA-MB-231)
OC(CN1CCN(c2cccc(Cl)c2)CC1)C(c1ccccc1)c1ccccc1.[Cl-].[Cl-].[H+].[H+] (stereo not drawn),0.981,1.05,0.982,1.04,1.07,1.04
Nc1nc(NCCc2ccc(O)cc2)nc2nc(-c3ccco3)nn12,0.973,0.956,0.822,1.01,1.03,1.03
CC(C(O)c1ccc(O)cc1)N1CCC(Cc2ccccc2)CC1.CC(C(O)c1ccc(O)cc1)N1CCC(Cc2ccccc2)CC1.O=C(O)C(O)C(O)C(=O)O (stereo not drawn) [Ifenprodil Tartrate],0.985,0.997,0.985,1.02,1.01,1.04
Cc1cccc(C#Cc2ccccc2)n1 [MPEP],1.03,1.05,0.999,1.03,1.1,1.05
CN1CCN(C(c2ccccc2)c2ccccc2)CC1.[Cl-].[Cl-].[H+].[H+] [Cyclizine 2HCl],1.02,1,1.01,1.03,1.07,1.03
Fc1ccc([C@@H]2CCNC[C@H]2COc2ccc3c(c2)OCO3)cc1.[Cl-].[H+] [Paroxetine HCl],0.912,0.927,0.955,0.931,0.927,0.965
CNCC(O)c1ccc(O)cc1 (stereo not drawn) [Synephrine],1.05,1.07,1.03,1.05,1.06,0.993
NCC1(CC(=O)O)CCCCC1 [Gabapentin],1.04,1.08,1.03,1,1.04,1.04
CCOc1cc([C@@H](CS(C)(=O)=O)N2C(=O)c3cccc(NC(C)=O)c3C2=O)ccc1OC [Apremilast],1.03,1.05,1.02,1.01,1.04,1
Cc1cc(CS(=O)(=O)c2ccccc2)cc(OCc2ccc(CN3CCC[C@@H]3CO)cc2)c1 [PF-543],0.99,1.07,1.03,0.97,1.01,1.01
COc1ccccc1N1CCN(CCN(C(=O)C2CCCCC2)c2ccccn2)CC1.O=C(O)/C=C\C(=O)O,0.993,1.04,0.976,1.02,1.06,1.03
CCC(c1cccc(O)c1)C(C)CN(C)C (stereo not drawn) [Tapentadol],1,1,1.01,1.01,1.01,0.986
Nc1nc2c(cnn2CCc2ccccc2)c2nc(-c3ccco3)nn12,0.781,0.902,0.666,0.99,0.94,1
C#C[C@]1(O)C=C[C@H]2[C@@H]3CCC4=CC(=O)CC[C@@H]4[C@H]3CC[C@@]21CC [Gestodene],1.03,1.12,1.01,0.981,1.04,1.03
CC(C)c1cc(-c2ccc(F)c3ccccc23)nc(N)n1,1,1.07,1.03,1.03,1.08,0.999
CC(=O)SCC(Cc1ccccc1)C(=O)NCC(=O)OCc1ccccc1 (stereo not drawn) [Racecadotril],1.02,1.08,1.01,1.04,1.07,1.02
COc1cc2nc(N3CCN(C(=O)C4CCCO4)CC3)nc(N)c2cc1OC.[Cl-].[H+] (stereo not drawn) [Terazosin],0.998,1.01,1.03,1.02,1.07,0.999
COc1nc(C)cnc1NS(=O)(=O)c1cccnc1-c1ccc(-c2nnco2)cc1 [Zibotentan (ZD4054)],1.01,1.04,0.958,1.02,1.07,1.03
CS(=O)(=O)O.Cc1ccc(N(CC2=NCCN2)c2cccc(O)c2)cc1 [Phentolamine Mesylate],0.964,1.04,0.983,0.997,1.05,1.01
C[N+](C)(C)CCCCCCCCCC[N+](C)(C)C.[Br-].[Br-] [Decamethonium Bromide],1.03,1.04,1.03,1.06,1.1,1.04
O=C(Nc1c(Cl)cncc1Cl)c1ccc(OC(F)F)c(OCC2CC2)c1 [Roflumilast],1.04,1.07,1.01,1.03,1.05,0.966
CCCCC(=O)N(Cc1ccc(-c2ccccc2-c2nnn[nH]2)cc1)[C@H](C(=O)O)C(C)C [Valsartan],1.04,,1.02,0.974,1.02,1.04
COc1cc2nc(N(C)CCCNC(=O)C3CCCO3)nc(N)c2cc1OC.[Cl-].[H+] (stereo not drawn) [Alfuzosin HCl],,,1.01,1.03,1.09,
CNCCCN1c2ccccc2CCc2ccccc21.Cl [Desipramine hydrochloride],,1.06,,0.985,0.997,1.03

# — the supplement of paper PMC9763283
